Assay results reported in ChEMBL document CHEMBL3885881, “DrugMatrix”.

Species on record: Rattus norvegicus
Assay: DrugMatrix - Regimen: Daily Repeat
Type: toxicity, organism-based, Sprague-Dawley
Design: regimen Daily Repeat, gender Male, age 6-8 weeks
Conditions: in vivo, po, route oral GAVAGE, vehicle .5 % CMC; for ABSOLUTE BASOPHIL / ABSOLUTE EOSINOPHIL / ABSOLUTE LYMPHOCYTE / ABSOLUTE MONOCYTE / ABSOLUTE SEGMENTED NEUTROPHIL / BASOPHIL / EOSINOPHIL / ERYTHROCYTE COUNT / HEMATOCRIT / HEMOGLOBIN / LEUKOCYTE COUNT / LYMPHOCYTE / MEAN CORPUSCULAR HEMOGLOBIN / MEAN CORPUSCULAR HEMOGLOBIN CONCENTRATION / MEAN CORPUSCULAR VOLUME / MONOCYTE / NEUTROPHIL / NUCLEATED RED BLOOD CELLS / PLATELET COUNT: tissue Blood; for ALANINE AMINOTRANSFERASE / ALBUMIN / ALKALINE PHOSPHATASE / ASPARTATE AMINOTRANSFERASE / BLOOD UREA NITROGEN / CARBON DIOXIDE / CHLORIDE / CHOLESTEROL / CREATINE PHOSPHOKINASE / CREATININE / GLUCOSE / LACTATE DEHYDROGENASE / LIPASE / PHOSPHORUS / POTASSIUM / SODIUM / TOTAL BILIRUBIN / TOTAL PROTEIN / URIC ACID: tissue Plasma
[1] = 0 mg/kg, 72 h, dose level Control, time 3 day
[2] = 0 mg/kg, 120 h, dose level Control, time 5 day
[3] = 500 mg/kg, 72 h, dose level Low, time 3 day

## CC(C)(Sc1cc(C(C)(C)C)c(O)c(C(C)(C)C)c1)Sc1cc(C(C)(C)C)c(O)c(C(C)(C)C)c1 [PROBUCOL]
[1]
  ABSOLUTE BASOPHIL: 0 CELLS/uL
  ABSOLUTE EOSINOPHIL: 222.83 CELLS/uL
  ABSOLUTE LYMPHOCYTE: 14453 CELLS/uL
  ABSOLUTE MONOCYTE: 0 CELLS/uL
  ABSOLUTE SEGMENTED NEUTROPHIL: 1490.83 CELLS/uL
  BASOPHIL: 0%
  EOSINOPHIL: 1.33%
  ERYTHROCYTE COUNT: 5.76 x10E6/uL
  HEMATOCRIT: 36.52%
  HEMOGLOBIN: 13.45 G/DL
  LEUKOCYTE COUNT: 16.17 x10E3/uL
  LYMPHOCYTE: 89.33%
  MEAN CORPUSCULAR HEMOGLOBIN: 23.37 pg
  MEAN CORPUSCULAR HEMOGLOBIN CONCENTRATION: 36.85 G/DL
  MEAN CORPUSCULAR VOLUME: 63.47 fL
  MONOCYTE: 0%
  NEUTROPHIL: 9.33%
  NUCLEATED RED BLOOD CELLS: 0 /100WBC
  PLATELET COUNT: 1239.5 x10E3/uL
  ALANINE AMINOTRANSFERASE: 43.83 u/L
  ALBUMIN: 4.27 G/DL
  ALKALINE PHOSPHATASE: 398.83 u/L
  ASPARTATE AMINOTRANSFERASE: 81.17 u/L
  BLOOD UREA NITROGEN: 17.67 mg/dL
  CARBON DIOXIDE: 27.5 mmol/L
  CHLORIDE: 99.17 MEQ/L
  CHOLESTEROL: 74 mg/dL
  CREATINE PHOSPHOKINASE: 331.5 u/L
  CREATININE: 0.2 mg/dL
  GLUCOSE: 171.33 mg/dL
  LACTATE DEHYDROGENASE: 241.67 u/L
  LIPASE: 9.5 u/L
  PHOSPHORUS: 12.25 mg/dL
  POTASSIUM: 6.33 MEQ/L
  SODIUM: 141.28 MEQ/L
  TOTAL BILIRUBIN: 0.15 mg/dL
  TOTAL PROTEIN: 5.98 G/DL
  URIC ACID: 1.63 mg/dL
[2]
  ABSOLUTE BASOPHIL: 0 CELLS/uL
  ABSOLUTE EOSINOPHIL: 148.67 CELLS/uL
  ABSOLUTE LYMPHOCYTE: 16020.5 CELLS/uL
  ABSOLUTE MONOCYTE: 29.17 CELLS/uL
  ABSOLUTE SEGMENTED NEUTROPHIL: 1468.33 CELLS/uL
  BASOPHIL: 0%
  EOSINOPHIL: 1%
  ERYTHROCYTE COUNT: 5.78 x10E6/uL
  HEMATOCRIT: 35.77%
  HEMOGLOBIN: 13.4 G/DL
  LEUKOCYTE COUNT: 17.67 x10E3/uL
  LYMPHOCYTE: 90.5%
  MEAN CORPUSCULAR HEMOGLOBIN: 23.22 pg
  MEAN CORPUSCULAR HEMOGLOBIN CONCENTRATION: 37.47 G/DL
  MEAN CORPUSCULAR VOLUME: 61.92 fL
  MONOCYTE: 0.17%
  NEUTROPHIL: 8.33%
  NUCLEATED RED BLOOD CELLS: 0.17 /100WBC
  PLATELET COUNT: 1255.5 x10E3/uL
  ALANINE AMINOTRANSFERASE: 46.5 u/L
  ALBUMIN: 4.38 G/DL
  ALKALINE PHOSPHATASE: 336 u/L
  ASPARTATE AMINOTRANSFERASE: 76.5 u/L
  BLOOD UREA NITROGEN: 20 mg/dL
  CARBON DIOXIDE: 27.5 mmol/L
  CHLORIDE: 101 MEQ/L
  CHOLESTEROL: 71.33 mg/dL
  CREATINE PHOSPHOKINASE: 231.83 u/L
  CREATININE: 0.37 mg/dL
  GLUCOSE: 168.83 mg/dL
  LACTATE DEHYDROGENASE: 174 u/L
  LIPASE: 8.67 u/L
  PHOSPHORUS: 11.48 mg/dL
  POTASSIUM: 6.82 MEQ/L
  SODIUM: 143.8 MEQ/L
  TOTAL BILIRUBIN: 0.2 mg/dL
  TOTAL PROTEIN: 5.98 G/DL
  URIC ACID: 1.83 mg/dL
[3]
  ABSOLUTE BASOPHIL: 0 CELLS/uL
  ABSOLUTE EOSINOPHIL: 297 CELLS/uL
  ABSOLUTE LYMPHOCYTE: 13431.33 CELLS/uL
  ABSOLUTE MONOCYTE: 0 CELLS/uL
  ABSOLUTE SEGMENTED NEUTROPHIL: 1238.33 CELLS/uL
  BASOPHIL: 0%
  EOSINOPHIL: 2%
  ERYTHROCYTE COUNT: 5.69 x10E6/uL
  HEMATOCRIT: 35.67%
  HEMOGLOBIN: 13.3 G/DL
  LEUKOCYTE COUNT: 14.97 x10E3/uL
  LYMPHOCYTE: 89.67%
  MEAN CORPUSCULAR HEMOGLOBIN: 23.37 pg
  MEAN CORPUSCULAR HEMOGLOBIN CONCENTRATION: 37.3 G/DL
  MEAN CORPUSCULAR VOLUME: 62.7 fL
  MONOCYTE: 0%
  NEUTROPHIL: 8.33%
  NUCLEATED RED BLOOD CELLS: 0 /100WBC
  PLATELET COUNT: 1188.33 x10E3/uL
  ALANINE AMINOTRANSFERASE: 35.33 u/L
  ALBUMIN: 4.5 G/DL
  ALKALINE PHOSPHATASE: 363.33 u/L
  ASPARTATE AMINOTRANSFERASE: 79 u/L
  BLOOD UREA NITROGEN: 17.33 mg/dL
  CARBON DIOXIDE: 26.33 mmol/L
  CHLORIDE: 100 MEQ/L
  CHOLESTEROL: 67.33 mg/dL
  CREATINE PHOSPHOKINASE: 213 u/L
  CREATININE: 0.25 mg/dL
  GLUCOSE: 158 mg/dL
  LACTATE DEHYDROGENASE: 122 u/L
  LIPASE: 8.33 u/L
  PHOSPHORUS: 12.37 mg/dL
  POTASSIUM: 6.67 MEQ/L
  SODIUM: 142.2 MEQ/L
  TOTAL BILIRUBIN: 0.13 mg/dL
  TOTAL PROTEIN: 6.23 G/DL
  URIC ACID: 1.73 mg/dL
